Measurements taken from patent US20230127906A1, “FORMULATIONS FOR EXTENDING LIFESPAN AND HEALTHSPAN” (Buck Institute for Research on Aging, priority 2017, published 2023).
Entries after “also recorded” stand apart in the source; their conditions may differ.

How the values were obtained:
[1] = tested on: IMR-90 fibroblasts; experiment: Cell senescence assay, irradiated cells, β-galactosidase; assay type: cell-based; conditions: cells pre-treated prior to irradiation, FIG. 12
Protocol: To measure the effects of Ca-AKG on cell senescence, IMR-90 fibroblasts in culture were exposed to gamma-irradiation either after pretreatment with AKG or prior to (post) treatment with Ca-AKG. Cell senescence was measured by β-Galactosidase fluorescence.

[2] = tested on: inflammatory cytokines; experiment: Inflammatory cytokine levels in aged mice; assay type: in vivo; conditions: three month treatment starting at 18 months of age, animals at 21 months, Cohort 2, FIG. 24
[3] = tested on: C57BL/6J mice; experiment: 31-item clinical frailty index in aged mice (total score and individual metrics); assay type: in vivo; conditions: for alopecia scores (hair loss): four month treatment starting at 18 months of age, FIG. 35; for piloerection: four month treatment, FIG. 37
Description: C57BL/6J mice of both sexes are aged in group caging in an approved animal facility. Mice are maintained on a 12-hour light/dark cycle, with free access to food and water. In general, initiation of interventions occurs in mice after 12 months of age and is maintained throughout the lifespan of the mice. However, short term or periodic interventional strategies may also be tested.
Mice are randomly assigned to either treatment or control group, and administered compositions of active agents or placebo (control) in food for a sufficient treatment period to observe effects on frailty characteristics.
Mice are periodically evaluated on the 31-item clinical frailty index previously described herein. This was first reported by Whitehead et al. (Journals of Gerontology: BIOLOGICAL SCIENCES, 69:621-632; 2014). This has been used in studies recently as a valuable metric of mouse frailty that involves non-invasive scoring ideal for longitudinal studies and corresponds well with the onset of human frailty (Rockwood et al., Scientific Reports, 7, 43068, 2017).
The 31 point metric for assessment of animal frailty is included in the following table:
For all individual frailty metrics shown, a similar strategy was used to assess frailty score. Using a double blind method, scorers were asked to assess the relative score of each animal either as 0 (healthy), 0.5 (moderately unhealthy) and 1 (unhealthy). For total frailty, all 31 metrics are added and divided by 31. For cohort 2, we report the total frailty score simply as the sum of all 31 metrics without normalization.
Loss of fur color and appearance of grey hair is used interchangeably.
Alopecia or hair loss is used interchangeably.
Kyphosis is a measure of exaggerated outward curvature of the lower cervical/thoracic vertebral column, and can reflect either loss of bone density or increased muscle weakness.
Tremors are a measure of involuntary shaking at rest or during movement. Dermatitis is a routine occurrence in aging C57/B16 mice.
Piloerection is defined as involuntary hair bristling and can be thought of similarly to “goose bumps.” This increases with age and can be triggered by coldness, reflecting an inability of the mice to maintain body temperature.
Mice are randomly assigned to either treatment or control group, and administered compositions comprising Ca-AKG or placebo in food for a sufficient treatment period to observe effects on frailty characteristics.
Mice are periodically evaluated on the 31-item clinical frailty index previously described herein.

Row | Compound | cell senescence, senescence-associated β-galactosidase (beta gal) [1] | levels of inflammatory cytokines [2] | alopecia scores (hair loss) ([3]; female mice) | piloerection ([3]; female mice) | grey hair ([3]; female mice, measured at 23 months of life, Cohort 1, FIG. 18) | hair loss ([3]; relative to control mice, Cohort 1, FIG. 20, 21) | kyphosis ([3]; relative to control mice, Cohort 1, FIG. 22) | tremors ([3]; relative to control mice, Cohort 1, FIG. 23) | coat graying / grey hair ([3]; vs placebo/control mice, Cohort 1, FIG. 11, 19, 20) | fur color (coat color) ([3]; female mice, four months treatment starting at 18 months of age, FIG. 36) | frailty scores (frailty index) ([3]; female mice, two months of treatment, Cohort 2, FIG. 10A) | kyphosis index ([3]; male and female mice combined, two months treatment starting at 18 months of age, FIG. 34) | frailty scores (frailty index) ([3]; male mice, 2 months of treatment, Cohort 2, FIG. 10C)
1 | O=C([O-])CCC(=O)C(=O)[O-].[Ca+2] [Ca-AKG, calcium α-ketoglutarate] | protected cells from irradiation-induced senescence; also recorded: decreases relative to control | prevents, or in some cases even reverses, the increase in levels of inflammatory cytokines | neither Ca-AKG nor RP had significant effects on their own | Neither compound alone had an effect | reduction in grey hair | reduced hair loss; also recorded: reduction in hair loss | reduction in kyphosis | reduction in tremors | dramatically reduced; also recorded: less grey hair than the control mouse; also recorded: less gray hair |  |  |  | 
2 | CCCCCCCCCCCCCCCC(=O)OC/C=C(C)/C=C/C=C(C)/C=C/C1=C(C)CCCC1(C)C [RP, retinyl palmitate] |  |  | neither Ca-AKG nor RP had significant effects on their own | Neither compound alone had an effect |  |  |  |  |  |  |  |  | 
3 | C=C1CC[C@H](O)C/C1=C/C=C1\CCC[C@]2(C)[C@@H]([C@H](C)CCCC(C)C)CC[C@@H]12 [vitamin D3] |  |  | sufficient to reduce alopecia |  |  |  |  |  |  | younger coat color | lower frailty | reduce the kyphosis index significantly | no significant reduction in frailty
